# Assay results: patent US6215002A, “Pyrrolopyrrolone derivatives as inhibitors of neutrophil elastase” (priority 1996, dated 2001)
# Where a name gives a salt, the structure may show the parent alone.
# Molecular target: T1, human neutrophil elastase (Homo sapiens, UniProt P08246)
# T1 sequence (P08246 30-267): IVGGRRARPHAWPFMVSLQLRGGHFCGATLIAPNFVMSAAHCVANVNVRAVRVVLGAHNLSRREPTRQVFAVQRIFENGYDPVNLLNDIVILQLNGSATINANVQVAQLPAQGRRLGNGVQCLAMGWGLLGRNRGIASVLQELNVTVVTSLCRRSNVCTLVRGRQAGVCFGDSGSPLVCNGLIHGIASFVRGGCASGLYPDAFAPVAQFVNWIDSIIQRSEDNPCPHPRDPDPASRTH
# Test: In vitro assay of human neutrophil elastase (HNE)
# Type: biochemical
# Details: 118 nM purified human neutrophil elastase, pH 8.6, 15 min incubation at 30° C., MeO-succinyl-alanyl-alanyl-prolyl-valyl-p-nitroanilide substrate; read-out: HNE IC50
# Method in brief: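 Residual activity was taken as the 10 min rate of absorbance rise at 405 nm after adding 0.6 mM MeO-succinyl-AAPV-p-nitroanilide. Curve fitting of activity against concentration gave IC50.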
row,SMILES,IC50
1,"CCC[C@H]1C(=O)N(S(C)(=O)=O)[C@H]2CCN(C(=O)CCN3C(C)CCCC3C)[C@H]12 (relative stereo) [Example 92, rel-(3R,3aR,6aS)-4-[3-(2,6-Dimethyl-piperidin-1-yl)-propionyl]-1-methanesulfonyl-3-propyl-hexahydro-pyrrolo[3,2-b]pyrrol-2-one hydrochloride]",0.07 µM
2,"CCC[C@H]1C(=O)N(S(C)(=O)=O)[C@H]2CCN(C(=O)CCC(N)=O)[C@H]12 (relative stereo) [Example 95, rel-4-(4-Methanesulfonyl-5-oxo-6R-propyl-hexahydro-(3aS,6aR)-pyrrolo[3,2-b]pyrrol-1-yl)-4-oxo-butyramide]",0.084 µM
3,"CCC[C@H]1C(=O)N(S(C)(=O)=O)[C@H]2CCN(C(=O)CCNC(C)=O)[C@H]12 (relative stereo) [Example 96, rel-N-[3-(4-Methanesulfonyl-5-oxo-6R-propyl-hexahydro-(3aS,6aR)-pyrrolo[3,2-b]pyrrol-1-yl)-3-oxo-propyl]-acetamide]",0.134 µM
4,"CCC[C@H]1C(=O)N(S(C)(=O)=O)[C@H]2CCN(C(=O)CCN3CCC(C(N)=O)CC3)[C@H]12 (relative stereo) [Example 98, rel-(3R,3aR,6aS)-1-[3-(4-Methanesulfonyl-5-oxo-6-propyl-hexahydro-pyrrolo[3,2-b]pyrrol-1-yl)-3-oxo-propyl]-piperidine-4-carboxylic acid amide hydrochloride]",0.159 µM
5,"CCC[C@H]1C(=O)N(S(C)(=O)=O)[C@H]2CCN(C(=O)CN(CC)CC)[C@H]12 (relative stereo) [Example 101, rel-(3R,3aR,6aS)-4-Diethylaminoacetyl-1-methanesulfonyl-3-propyl-hexahydro-pyrrolo[3,2-b]pyrrol-2-one hydrochloride]",0.169 µM
6,"CCC[C@H]1C(=O)N(S(C)(=O)=O)[C@H]2CCN(C(=O)CN(C)C)[C@H]12 (relative stereo) [Example 102, rel-(3R,3aR,6aS)-4-Dimethylaminoacetyl-1-methanesulfonyl-3-propyl-hexahydro-pyrrolo[3,2-b]pyrrol-2-one hydrochloride]",0.091 µM
7,"CCC[C@H]1C(=O)N(S(C)(=O)=O)[C@H]2CCN(C(=O)CN(C)c3ccccc3)[C@H]12 (relative stereo) [Example 103, rel-(3R,3aR,6aS)-1-Methanesulfonyl-4-[(methyl-phenyl-amino)-acetyl]-3-propyl-hexahydro-pyrrolo[3,2-b]pyrrol-2-one hydrochloride]",0.104 µM
8,"CCC[C@H]1C(=O)N(S(C)(=O)=O)[C@H]2CCN(C(=O)CNC)[C@H]12 (relative stereo) [Example 110, rel-(3R,3aR,6aS)-1-Methanesulfonyl-4-methylaminoacetyl-3-propyl-hexahydro-pyrrolo[3,2-b]pyrrol-2-one trifluoroacetate]",0.136 µM
9,"CCC[C@H]1C(=O)N(S(C)(=O)=O)[C@H]2CCN(C(=O)Cn3ccccc3=O)[C@H]12 (relative stereo) [Example 112, rel-(3R,3aR,6aS)-1-Methanesulfonyl-4-[(2-oxo-2H-pyridin-1-yl)-acetyl]-3-propyl-hexahydro-pyrrolo[3,2-b]pyrrol-2-one]",0.222 µM
10,"CCC[C@H]1C(=O)N(S(C)(=O)=O)[C@H]2CCN(C(=O)Cn3ccc(=O)cc3)[C@H]12 (relative stereo) [Example 113, rel-(3R,3aR,6aS)-1-Methanesulfonyl-4-[(4-oxo-4H-pyridin-1-yl)-acetyl]-3-propyl-hexahydro-pyrrolo[3,2-b]pyrrol-2-one]",0.304 µM
11,"CCC[C@H]1C(=O)N(S(C)(=O)=O)[C@H]2CCN(C(=O)CNC(C)=O)[C@H]12 (relative stereo) [Example 114, rel-N-[2-(4-Methanesulfonyl-5-oxo-6R-propyl-hexahydro-(3aS,6aR)-pyrrolo[3,2-b]pyrrol-1-yl)-2-oxo-ethyl]-acetamide]",0.042 µM

# Second part, the molecule after the results:
row,IC50,SMILES
1,0.089 µM,"CCC[C@H]1C(=O)N(S(C)(=O)=O)[C@H]2CCN(C(=O)CCN3CCCC3)[C@H]12 (relative stereo) [Example 93, rel-(3R,3aR,6aS)-1-Methanesulfonyl-3-propyl-4-(3-pyrrolidin-1-yl-propionyl)-hexahydro-pyrrolo[3,2-b]pyrrol-2-one hydrochloride]"
2,0.081 µM,"CCC[C@H]1C(=O)N(S(C)(=O)=O)[C@H]2CCN(C(=O)CCN3CCN(C)CC3)[C@H]12 (relative stereo) [Example 94, rel-(3R,3aR,6aS)-1-Methanesulfonyl-4-[3-(4-methyl-piperazin-1-yl)-propionyl]-3-propyl-hexahydro-pyrrolo[3,2-b]pyrrol-2-one dihydrochloride]"
3,0.202 µM,"CCC[C@H]1C(=O)N(S(C)(=O)=O)[C@H]2CCN(C(=O)CCN3CCC3)[C@H]12 (relative stereo) [Example 97, rel-(3R,3aR,6aS)-4-(3-Azetidin-1-yl-propionyl)-1-methanesulfonyl-3-propyl-hexahydro-pyrrolo[3,2-b]pyrrol-2-one hydrochloride]"
4,0.079 µM,"CCC[C@H]1C(=O)N(S(C)(=O)=O)[C@H]2CCN(C(=O)CCN3CCCCCC3)[C@H]12 (relative stereo) [Example 99, hydrochloride]"
5,0.65 µM,"CCC[C@H]1C(=O)N(S(C)(=O)=O)[C@H]2CCN(C(=O)CN3CCCCC3)[C@H]12 (relative stereo) [Example 100, rel-(3R,3aR,6aS)-1-Methanesulfonyl-4-(piperidin-1-yl-acetyl)-3-propyl-hexahydro-pyrrol[3,2-b]pyrrol-2-one hydrochloride]"
6,0.574 µM,"CCC[C@H]1C(=O)N(S(C)(=O)=O)[C@H]2CCN(C(=O)CN3CCCCCC3)[C@H]12 (relative stereo) [Example 104, rel-(3R,3aR,6aS)-4-Azepin-1-yl-acetyl)-1-methanesulfonyl-3-propyl-hexahydro-pyrrolo[3,2-b]pyrrol-2-one hydrochloride]"
7,0.193 µM,"CCC[C@H]1C(=O)N(S(C)(=O)=O)[C@H]2CCN(C(=O)CN3CCN(C)CC3)[C@H]12 (relative stereo) [Example 105, rel-(3R,3aR,6aS)-1-Methanesulfonyl-4-[(4-methyl-piperazin-1-yl)-acetyl]-3-propyl-hexahydro-pyrrolo[3,2-b]pyrrol-2-one hydrochloride]"
8,0.143 µM,"CCC[C@H]1C(=O)N(S(C)(=O)=O)[C@H]2CCN(C(=O)CN3CCOCC3)[C@H]12 (relative stereo) [Example 107, rel-(3R,3aR,6aS)-1-Methanesulfonyl-4-morpholin-4-yl-acetyl)-3-propyl-hexahydro-pyrrolo[3,2-b]pyrrol-2-one hydrochloride]"
9,0.481 µM,"CCC[C@H]1C(=O)N(S(C)(=O)=O)[C@H]2CCN(C(=O)CN3CCCC3)[C@H]12 (relative stereo) [Example 108, hydrochloride]"
10,0.096 µM,"CCC[C@H]1C(=O)N(S(C)(=O)=O)[C@H]2CCN(C(=O)CN)[C@H]12 (relative stereo) [Example 109, rel-(3R,3aR,6aS)-4-Aminoacetyl-1-methanesulfonyl-3-propyl-hexahydro-pyrrolo[3,2-b]pyrrol-2-one trifluoroacetate]"
11,0.58 µM,"CCC[C@H]1C(=O)N(S(C)(=O)=O)[C@H]2CCN(C(=O)C3CCCN3C)[C@H]12 (relative stereo) [Example 111, rel-(3R,3aR,6aS)-1-Methanesulfonyl-4-(1-methyl-pyrrolidine-2-carbonyl)-3-propyl-hexahydro-pyrrolo[3,2-b]pyrrol-2-one]"
